≈ marks a conversion by molar mass, not a printed value. Like-named read-outs stand apart in the source and are kept apart here. Residues, ends and D or L forms follow the SMILES beside them. No end group written: not given here.

The subject of one data set is Staphylococcus aureus. Kind of data set: Bacterial lysis (broth dilution) assay, MBC. In kind it is cell-based. An excerpt: (§1) The assays for growth inhibition of a microbial target can be used to derive a minimum bactericidal concentration (MBC) value for the peptide, i.e., the concentration of peptide required to kill 99.9% of the microbial sample being tested. This value is well known to those in the art as representative of the effectiveness of a particular antimicrobial agent (e.g., an antibiotic) against a particular organism or group of organisms. In assays to detect the MBC of a peptide, growth inhibition of a bacterial population also can be measured with reference to the number of colony forming units (cfu) after exposure to a peptide relative to a control experiment without a peptide.
(§2) Bacterial lysis assay. Bacterial lysis assays were conducted in a manner similar to that described previously (Lehrer, R. I., M. E. Selsted, D. Szklarek, and F. J. 1983. Infect. Immun. 42: 10-4, 1983; Miller, M. A., R. F. Garry, J. M. Jaynes, and R. C. Montelaro, AIDS Res Hum Retroviruses 7: 511-519, 1991). Bacterial suspensions were cultured in Luria-Bertani Broth to mid-log growth phase and washed by two cycles of centrifugation and suspension in 10 mM phosphate buffer. The Abs600 of the suspension was adjusted with 10 mM phosphate buffer such that, upon dilution, 5-10×10^5 cfu/mL would be treated in the assay. Bacteria were incubated for 1 h with two-fold dilutions of peptides (100 μM to 100 nM) in 96-well plates using 10 mM phosphate buffer, pH 7.2, as a diluent. Ten-fold dilutions of bacteria were performed to 1:1000; a 100 μl aliquot from each condition was spread on the surface of tryptic soy agar plates (Difco, Detroit, Mich.) which were incubated overnight. Colonies of surviving bacteria (cfu, colony-forming units) were counted and compared to untreated controls to determine the amount of peptide-induced killing under each condition. Log killing is defined as the log of the ratio of cfu present before and after treatment with peptide. The minimal bactericidal concentration, MBC, is the peptide concentration at which 99.9% (three log) killing is achieved (Pearson et al., Antimicrob. Agents Chemother. 18: 699-708, 1980).
(§3) A limitation of many host-derived antimicrobial peptides is their decreased activity at physiologic (150 mM) NaCl concentration. See Friedrich et al., Antimicrobial Agents and Chemotherapy 43:1542-1548. The peptides WLSA-5 (SEQ ID NO:3) and LL37 were tested against the two index strains at physiologic NaCl. […] The activity of eLLPs and LBUs of this invention were compared to an expanded list of clinical bacterial isolates. These are summarized in Table 2 by comparing their MBCs in phosphate buffer alone (low salt) and phosphate buffer containing 150 mM NaCl (physiologic conditions). Inspection of this table would lead one skilled in the art to conclude that the activity of eLLPs and LBUs compare favorably to the host derived antimicrobial peptides as it relates to the spectrum and potency of antimicrobial activity.

For another data set, the system named is Pseudomonas aeruginosa. In kind it is cell-based.
From the text: as §1, §2, §3

In data set [1] the test system is Methicillin Resistant S. aureus. The class given is cell-based, Staphylococcus aureus. The note with it: 0 mM NaCl (phosphate buffer, low salt).
From the text: as §1
Bacterial lysis assay. Bacterial lysis assays were conducted in a manner similar to that described previously (Lehrer, R. I., M. E. Selsted, D. Szklarek, and F. J. 1983. Infect. Immun. 42: 10-4, 1983; Miller, M. A., R. F. Garry, J. M. Jaynes, and R. C. Montelaro, AIDS Res Hum Retroviruses 7: 511-519, 1991). Bacterial suspensions were cultured in Luria-Bertani Broth to mid-log growth phase and washed by two cycles of centrifugation and suspension in 10 mM phosphate buffer. […] Colonies of surviving bacteria (cfu, colony-forming units) were counted and compared to untreated controls to determine the amount of peptide-induced killing under each condition. […]

Data set [2] deals with differentiated primary human airway epithelial cells. As to the kind of experiment: Cystic fibrosis cell culture model: transepithelial resistance. The class given is cell-based. The following applies: compared with LL-37. Here is the method:
Preparation of eukaryotic cells. Differentiated primary cell cultures of human bronchial epithelial (HBE) cells (CF and non-CF) on an air-liquid interface were prepared in antibiotic free media. See Zabner, J. et al., 1996, J Virol. 70:6994-7003. These filters were incubated with P. aeruginosa followed by washing to remove non-adherent bacteria. Individual filters were next exposed to peptide at increasing concentrations. In order to release viable bacteria, trypsin/EDTA was added and these preparations were plated on standard bacteriologic media to quantify bacterial survival. Similarly prepared cells were monitored for peptide toxicity by measuring transepithelial resistance. The advantage of this model is that it can measure the selective toxicity of peptide for bacterium versus host cells under identical conditions.
Based on above in vitro findings, WLSA-5 (SEQ ID NO:3) was tested in a scenario that more accurately assessed its selective toxicity. For this assay, a cell culture model of bacterial adherence was established that utilized differentiated primary human airway epithelial cells. […] The ability of peptide to kill bacteria is monitored as a function of viable bacteria associated with the epithelial cells after peptide exposure. […]

Setting [3] is: 0 mM NaCl (phosphate buffer, low salt).

As usually defined, the MBC is the lowest tested concentration that kills the bacteria rather than only halting them. Take “RVVRVVRRVVRRVRRVVRRVVRVVRRVVRRVRRVVRRVVRVVRRVVRR [LBU-4]”: the MBC in the data set with Staphylococcus aureus (setting [3]) and with Staphylococcus aureus (150 mM NaCl (physiologic)) was 800 nM throughout.

As for `CC[C@H](C)[C@H](NC(=O)[C@H](C)NC(=O)[C@H](CCCNC(=N)N)NC(=O)[C@H](CS)NC(=O)[C@H](C)NC(=O)[C@H](CCCNC(=N)N)NC(=O)[C@H](CCC(N)=O)NC(=O)[C@@H](NC(=O)[C@@H](NC(=O)[C@H](CCCNC(=N)N)NC(=O)[C@@H](NC(=O)[C@@H](NC(=O)[C@@H](N)CCCNC(=N)N)C(C)C)[C@@H](C)CC)C(C)C)C(C)C)C(=O)N[C@@H](CCCNC(=N)N)C(=O)N[C@@H](Cc1c[nH]cn1)C(=O)N[C@H](C(=O)N[C@H](C(=O)N[C@@H](CCCNC(=N)N)C(=O)N[C@@H](CCCNC(=N)N)C(=O)N[C@H](C(=O)N[C@@H](CCCNC(=N)N)C(=O)N[C@@H](CCC(N)=O)C(=O)NCC(=O)N[C@@H](CC(C)C)C(=O)N[C@@H](CCCNC(=N)N)C(=O)N[C@@H](CCCNC(=N)N)C(=O)N[C@H](C(=O)N[C@@H](CC(C)C)C(=O)O)[C@@H](C)CC)[C@@H](C)CC)C(C)C)[C@@H](C)CC` [SA-5] (H-RVIRVVQRACRAIRHIVRRIRQGLRRIL-OH; N-terminus and C-terminus assumed), the MBC in the data set on Pseudomonas aeruginosa (setting [3]) turned out to be 1 µM; against Pseudomonas aeruginosa (150 mM NaCl (physiologic)) it was 1 µM (≈ 3.46 µg/mL); with Staphylococcus aureus (setting [3]), 1000 nM.

As to `CC(C)[C@H](NC(=O)[C@H](Cc1c[nH]c2ccccc12)NC(=O)[C@H](CCCNC(=N)N)NC(=O)[C@H](CCCNC(=N)N)NC(=O)[C@@H](NC(=O)[C@@H](NC(=O)[C@H](CCCNC(=N)N)NC(=O)[C@@H](NC(=O)[C@@H](NC(=O)[C@@H](N)CCCNC(=N)N)C(C)C)C(C)C)C(C)C)C(C)C)C(=O)N[C@@H](CCCNC(=N)N)C(=O)N[C@@H](CCCNC(=N)N)C(=O)O` [WLBU-1] (H-RVVRVVRRWVRR-OH; N-terminus and C-terminus assumed), the minimum bactericidal concentration (MBC) is 30,000 nanomolar in the data set on Staphylococcus aureus (setting [3]) and 10,000 nanomolar in the data set on Staphylococcus aureus (150 mM NaCl (physiologic)).

In the data set with Pseudomonas aeruginosa (150 mM NaCl (physiologic)), “RRVVRRVRRVVRRVVRVVRRVVRRVRRVVRRVVRVVRRVVRR [LBU-3.5]” gave an MBC of 0.4 µM.

With `CC[C@H](C)[C@H](NC(=O)[C@H](C)NC(=O)[C@H](CCCNC(=N)N)NC(=O)[C@H](CS)NC(=O)[C@H](Cc1c[nH]c2ccccc12)NC(=O)[C@H](CCCNC(=N)N)NC(=O)[C@H](CCC(N)=O)NC(=O)[C@@H](NC(=O)[C@@H](NC(=O)[C@H](CCCNC(=N)N)NC(=O)[C@@H](NC(=O)[C@H](Cc1c[nH]c2ccccc12)NC(=O)[C@@H](N)CCCNC(=N)N)[C@@H](C)CC)C(C)C)C(C)C)C(=O)N[C@@H](CCCNC(=N)N)C(=O)N[C@@H](Cc1c[nH]cn1)C(=O)N[C@H](C(=O)N[C@@H](Cc1c[nH]c2ccccc12)C(=O)N[C@@H](CCCNC(=N)N)C(=O)N[C@@H](CCCNC(=N)N)C(=O)N[C@H](C(=O)N[C@@H](CCCNC(=N)N)C(=O)N[C@@H](CCC(N)=O)C(=O)NCC(=O)N[C@@H](CC(C)C)C(=O)N[C@@H](CCCNC(=N)N)C(=O)N[C@@H](CCCNC(=N)N)C(=O)N[C@@H](Cc1c[nH]c2ccccc12)C(=O)N[C@@H](CC(C)C)C(=O)N[C@@H](CCCNC(=N)N)C(=O)N[C@H](C(=O)N[C@H](C(=O)O)C(C)C)C(C)C)[C@@H](C)CC)[C@@H](C)CC` [WLSA-5] (H-RWIRVVQRWCRAIRHIWRRIRQGLRRWLRVV-OH), the MBC with Pseudomonas aeruginosa (setting [3]) worked out at 1 µM; against Pseudomonas aeruginosa (150 mM NaCl (physiologic)), 1 µM (≈ 4.18 µg/mL); with Staphylococcus aureus (setting [3]), 1000 nM; with Staphylococcus aureus (150 mM NaCl (physiologic)) it was 1000 nM (≈ 4.18 µg/mL); in data set [1] it was 0.15 µM. For the same molecule, the “effect on transepithelial resistance” value in data set [2] is “transient and not significantly different from LL-37”.

On to “LL37: human cathelicidin, processed form a 37-amino acid amphiphilic α-helical cationic host derived antimicrobial peptide (LLGDFFRKSKEKIGKEFKRIVQRIKDFLRNLVPRTES; Antibacterial peptide LL-37; UniProt P49913 134-170, looked up) [reference compound]”, for which the “P. aeruginosa killing, influence of NaCl” value with Pseudomonas aeruginosa (low salt vs physiologic (150 mM) NaCl) is reported as “not affected by NaCl inclusion”.

In the case of `CC(C)[C@H](NC(=O)[C@H](CCCNC(=N)N)NC(=O)[C@H](CCCNC(=N)N)NC(=O)[C@@H](NC(=O)[C@@H](NC(=O)[C@H](CCCNC(=N)N)NC(=O)[C@@H](N)CCCNC(=N)N)C(C)C)C(C)C)C(=O)N[C@@H](CCCNC(=N)N)C(=O)N[C@@H](CCCNC(=N)N)C(=O)N[C@H](C(=O)N[C@H](C(=O)N[C@@H](CCCNC(=N)N)C(=O)N[C@@H](CCCNC(=N)N)C(=O)N[C@H](C(=O)N[C@H](C(=O)N[C@@H](CCCNC(=N)N)C(=O)N[C@H](C(=O)N[C@H](C(=O)N[C@@H](CCCNC(=N)N)C(=O)N[C@@H](CCCNC(=N)N)C(=O)N[C@H](C(=O)N[C@H](C(=O)N[C@@H](CCCNC(=N)N)C(=O)N[C@@H](CCCNC(=N)N)C(=O)O)C(C)C)C(C)C)C(C)C)C(C)C)C(C)C)C(C)C)C(C)C)C(C)C` [LBU-2] (H-RRVVRRVRRVVRRVVRVVRRVVRR-OH), the MBC in the data set with Staphylococcus aureus (setting [3]) is 1500 nM.

On to `CC(C)[C@H](N)C(=O)N[C@@H](CCCNC(=N)N)C(=O)N[C@@H](CCCNC(=N)N)C(=O)N[C@H](C(=O)N[C@H](C(=O)N[C@@H](CCCNC(=N)N)C(=O)N[C@@H](CCCNC(=N)N)C(=O)N[C@H](C(=O)N[C@H](C(=O)N[C@@H](CCCNC(=N)N)C(=O)N[C@H](C(=O)N[C@H](C(=O)N[C@@H](CCCNC(=N)N)C(=O)N[C@@H](CCCNC(=N)N)C(=O)N[C@H](C(=O)N[C@H](C(=O)N[C@@H](CCCNC(=N)N)C(=O)N[C@@H](CCCNC(=N)N)C(=O)N[C@H](C(=O)N[C@@H](CCCNC(=N)N)C(=O)N[C@@H](CCCNC(=N)N)C(=O)N[C@H](C(=O)N[C@H](C(=O)N[C@@H](CCCNC(=N)N)C(=O)N[C@@H](CCCNC(=N)N)C(=O)N[C@H](C(=O)N[C@H](C(=O)N[C@@H](CCCNC(=N)N)C(=O)N[C@H](C(=O)N[C@H](C(=O)N[C@@H](CCCNC(=N)N)C(=O)N[C@@H](CCCNC(=N)N)C(=O)N[C@H](C(=O)N[C@H](C(=O)N[C@@H](CCCNC(=N)N)C(=O)N[C@@H](CCCNC(=N)N)C(=O)O)C(C)C)C(C)C)C(C)C)C(C)C)C(C)C)C(C)C)C(C)C)C(C)C)C(C)C)C(C)C)C(C)C)C(C)C)C(C)C)C(C)C)C(C)C)C(C)C)C(C)C` [LBU-3] (H-VRRVVRRVVRVVRRVVRRVRRVVRRVVRVVRRVVRR-OH; N-terminus and C-terminus assumed), for which the MBC in the data set with Staphylococcus aureus (setting [3]) turned out to be 1500 nM; in the data set with Staphylococcus aureus (150 mM NaCl (physiologic)) it was 1500 nM (≈ 6.92 µg/mL).

Values taken from patent US6887847B2, “Virus derived antimicrobial peptides” (University of Pittsburgh, priority 2001, dated 2005).
